Molecules are shown by their SMILES.

Usually Kd stands for a measure of binding affinity in units of concentration. The low end stands for higher affinity, the high end for lower affinity.

The target in the experiment is human RORγt ligand binding domain (RORγt LBD) (Homo sapiens (Human), UniProt P51449). The experiment is described as follows: RORγt ThermoFluor assay. The essentials: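 Thermal shift of His-tagged human RORγt LBD (0.065 mg/mL) with 60 μM 1,8-ANS in 100 mM Hepes pH 7.0, 10 mM NaCl, 2.5 mM GSH, 0.002% Tween-20, heated at 1° C./min. Compounds in 1:2 series from a 10 mM DMSO stock; KD estimated from ΔTm using protein unfolding thermodynamics.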
Sequence of human RORγt ligand binding domain (RORγt LBD) (P51449 other isoform, or with tags, fused parts or gaps): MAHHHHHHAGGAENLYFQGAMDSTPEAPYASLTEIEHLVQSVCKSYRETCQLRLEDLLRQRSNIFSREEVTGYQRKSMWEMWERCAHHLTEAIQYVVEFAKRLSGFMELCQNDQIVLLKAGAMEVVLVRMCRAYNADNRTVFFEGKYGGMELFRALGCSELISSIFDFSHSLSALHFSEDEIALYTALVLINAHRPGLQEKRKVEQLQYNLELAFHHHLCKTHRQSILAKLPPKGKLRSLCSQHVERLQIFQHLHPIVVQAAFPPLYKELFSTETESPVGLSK
Compound `CCc1nc(C(=O)NC[C@H]2CC[C@H](S(C)(=O)=O)CC2)c(Cl)n1-c1ccc(CC(C)C(F)(F)F)cc1OC` (single isomer, unassigned) [Example 6, 5-Chloro-2-ethyl-1-((1S*)-2-methoxy-4-(3,3,3-trifluoro-2-methylpropyl)phenyl)-N-(((1r,4S)-4-(methylsulfonyl)cyclohexyl)methyl)-1H-imidazole-4-carboxamide] registered a Kd of 0.17 nM. Turning to `CCc1nc(C(=O)NC[C@H]2CC[C@H](S(C)(=O)=O)CC2)c(C)n1-c1ccc(CC(C)C(F)(F)F)cc1OC` (single isomer, unassigned) [Example 7], the Kd is 1 nM. As for `CCc1nc(C(=O)NC[C@H]2CC[C@H](S(C)(=O)=O)CC2)c(Cl)n1-c1ncc(CC(C)(C)C(F)(F)F)cc1OC(F)F` [Example 2, 5-Chloro-1-(3-(difluoromethoxy)-5-(3,3,3-trifluoro-2,2-dimethylpropyl)pyridin-2-yl)-2-ethyl-N-((4-(methylsulfonyl)cyclohexyl)methyl)-1H-imidazole-4-carboxamide], binding was put at a Kd of 2.4 nM. Turning to `CCc1nc(C(=O)NC[C@H]2CC[C@H](S(C)(=O)=O)CC2)c(Cl)n1-c1ccc(N[C@H](C)C(F)(F)F)cc1OC` [Example 3, 5-Chloro-2-ethyl-1-(2-methoxy-4-(((R)-1,1,1-trifluoropropan-2-yl)amino)phenyl)-N-(((1r,4R)-4-(methylsulfonyl)cyclohexyl)methyl)-1H-imidazole-4-carboxamide], binding was characterised by a dissociation constant (Kd) of 3.5 nM.

As for `CCc1nc(C(=O)NC[C@H]2CC[C@H](S(C)(=O)=O)CC2)c(F)n1-c1ccc(N[C@H](C)C(F)(F)F)cc1OC` [Example 12, 2-Ethyl-5-fluoro-1-(2-methoxy-4-(((R)-1,1,1-trifluoropropan-2-yl)amino)phenyl)-N-(((1r,4R)-4-(methylsulfonyl)cyclohexyl)methyl)-1H-imidazole-4-carboxamide], the Kd amounted to 12 nM. `CCc1nc(C(=O)NC[C@H]2CC[C@H](S(C)(=O)=O)CC2)c(Cl)n1-c1ccc(CCC(F)(F)F)cc1F` [Example 22, 5-Chloro-2-ethyl-1-(2-fluoro-4-(3,3,3-trifluoropropyl)phenyl)-N-(((1r,4r)-4-(methylsulfonyl)cyclohexyl)methyl)-1H-imidazole-4-carboxamide] came in with a Kd of 20 nM.

`[2H]C([2H])([2H])Oc1cc(CC(C)(C)C(F)(F)F)ccc1-n1c(CC)nc(C(=O)NC[C@H]2CC[C@H](S(C)(=O)=O)CC2)c1C#N` [Example 27, 5-Cyano-2-ethyl-1-(2-(methoxy-d3)-4-(3,3,3-trifluoro-2,2-dimethylpropyl)phenyl)-N-(((1r,4r)-4-(methylsulfonyl)cyclohexyl)methyl)-1H-imidazole-4-carboxamide]: the Kd stood at 0.76 nM.

Compound `CCc1nc(C(=O)NC[C@H]2CC[C@H](S(C)(=O)=O)CC2)c(C#N)n1-c1ccc(CC(C)(C)C(F)(F)F)cc1OC(F)F` [Example 36, 5-Cyano-1-(2-(difluoromethoxy)-4-(3,3,3-trifluoro-2,2-dimethylpropyl)phenyl)-2-ethyl-N-(((1r,4r)-4-(methylsulfonyl)cyclohexyl)methyl)-1H-imidazole-4-carboxamide] returned a Kd of 1.6 nM. Take `CCc1nc(C(=O)NC[C@]2(O)CC[C@@H](S(C)(=O)=O)CC2)c(Cl)n1-c1c(F)cc(CC(C)C)cc1F` [Example 83, 5-Chloro-1-(2,6-difluoro-4-isobutylphenyl)-2-ethyl-N-(((1s,4s)-1-hydroxy-4-(methylsulfonyl)cyclohexyl)methyl)-1H-imidazole-4-carboxamide]: the Kd stood at 2.6 nM.

In the case of `CCc1nc(C(=O)NC[C@]2(O)CC[C@@H](S(C)(=O)=O)CC2)c(Cl)n1-c1ccc(CC(C(F)(F)F)C(F)(F)F)cc1F` [Example 100, 5-Chloro-2-ethyl-1-(2-fluoro-4-(3,3,3-trifluoro-2-(trifluoromethyl)propyl)phenyl)-N-(((1s,4s)-1-hydroxy-4-(methylsulfonyl)cyclohexyl)methyl)-1H-imidazole-4-carboxamide], the Kd is 2.1 nM.

`CCc1nc(C(=O)NC[C@]2(O)CC[C@@H](S(C)(=O)=O)CC2)c(C)n1-c1ccc(CC(C(F)(F)F)C(F)(F)F)cc1F` [Example 109, 2-Ethyl-1-(2-fluoro-4-(3,3,3-trifluoro-2-(trifluoromethyl)propyl)phenyl)-N-(((1s,4s)-1-hydroxy-4-(methylsulfonyl)cyclohexyl)methyl)-5-methyl-1H-imidazole-4-carboxamide] returned a Kd of 6.5 nM.

In turn, `CCc1nc(C(=O)NC[C@]2(O)CC[C@@H](S(C)(=O)=O)CC2)c(C#N)n1-c1ccc(CC(C)(C)C(F)(F)F)cc1OC(F)(F)F` [Example 111, 5-Cyano-2-ethyl-N-(((1s,4s)-1-hydroxy-4-(methylsulfonyl)cyclohexyl)methyl)-1-(4-(3,3,3-trifluoro-2,2-dimethylpropyl)-2-(trifluoromethoxy)phenyl)-1H-imidazole-4-carboxamide] had a Kd of 24 nM.

Source of the values: patent publication US11345666B2, “Phenyl and pyridinyl substituted imidazoles as modulators of RORγT” (Janssen Pharmaceutica NV, priority 2018, dated 2022).
